Test results: patent publication US11780827B2, “Substituted 3-phenoxyazetidin-1-yl-pyrazines” (Boehringer Ingelheim International GmbH, priority 2020, dated 2023)
pEC50: −log10 of the molar value.

Tests used:
aldehyde oxidase [1] = biological target: T1, aldehyde oxidase (Homo sapiens, UniProt Q06278); experiment: In vitro metabolite profiling in primary human hepatocytes with or without hydralazine; type: in vitro ADME; conditions: for % Parent of drug-related material: 1 μM test compound; for Contribution of AO to oxidative metabolism: sum of AO-formed metabolites
T1 construct: endogenous in cells; host or cells: cryopreserved primary human hepatocytes
T1 sequence (Q06278 1-1338): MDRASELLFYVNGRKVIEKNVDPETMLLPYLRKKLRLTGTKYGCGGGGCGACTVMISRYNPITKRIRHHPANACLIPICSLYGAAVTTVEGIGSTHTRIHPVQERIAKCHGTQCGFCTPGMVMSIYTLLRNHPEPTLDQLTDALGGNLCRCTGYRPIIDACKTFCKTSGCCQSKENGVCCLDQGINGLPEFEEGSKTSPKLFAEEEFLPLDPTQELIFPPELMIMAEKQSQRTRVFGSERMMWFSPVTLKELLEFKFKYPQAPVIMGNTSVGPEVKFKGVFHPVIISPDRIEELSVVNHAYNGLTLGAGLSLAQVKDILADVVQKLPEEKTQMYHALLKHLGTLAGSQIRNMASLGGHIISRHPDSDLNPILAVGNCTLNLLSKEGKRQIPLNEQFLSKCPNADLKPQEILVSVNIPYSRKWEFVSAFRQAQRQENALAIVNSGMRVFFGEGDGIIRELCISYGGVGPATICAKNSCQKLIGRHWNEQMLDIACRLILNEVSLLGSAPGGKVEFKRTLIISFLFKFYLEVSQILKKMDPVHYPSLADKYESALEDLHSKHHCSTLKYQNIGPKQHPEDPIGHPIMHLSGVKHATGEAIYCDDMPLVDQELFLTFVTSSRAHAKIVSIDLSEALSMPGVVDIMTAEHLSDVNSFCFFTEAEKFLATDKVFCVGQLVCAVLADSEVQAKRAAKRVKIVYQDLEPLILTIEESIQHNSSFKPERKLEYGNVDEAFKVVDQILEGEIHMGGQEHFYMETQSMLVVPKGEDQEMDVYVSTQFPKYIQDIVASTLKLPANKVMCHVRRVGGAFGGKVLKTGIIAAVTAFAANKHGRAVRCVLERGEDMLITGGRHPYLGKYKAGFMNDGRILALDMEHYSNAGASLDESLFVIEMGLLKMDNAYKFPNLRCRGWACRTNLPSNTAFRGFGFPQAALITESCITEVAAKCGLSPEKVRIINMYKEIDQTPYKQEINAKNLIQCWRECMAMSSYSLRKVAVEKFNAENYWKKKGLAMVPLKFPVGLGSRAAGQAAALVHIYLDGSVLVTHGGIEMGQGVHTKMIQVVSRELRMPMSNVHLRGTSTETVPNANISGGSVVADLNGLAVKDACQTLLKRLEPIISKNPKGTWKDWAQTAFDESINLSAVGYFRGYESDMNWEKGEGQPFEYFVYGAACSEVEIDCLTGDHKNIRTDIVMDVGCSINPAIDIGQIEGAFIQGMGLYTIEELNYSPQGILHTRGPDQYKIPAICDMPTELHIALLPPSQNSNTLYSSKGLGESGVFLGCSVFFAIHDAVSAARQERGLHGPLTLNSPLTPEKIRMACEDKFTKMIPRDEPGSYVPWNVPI
Procedure: (§1) In vitro metabolite profiling to evaluate the involvement of aldehyde oxidase in addition to CYP-mediated metabolic pathways is based on the semiquantitative analysis of the formation of oxygenated metabolites in primary human hepatocytes and the reduction in their formation in presence of the specific aldehyde oxidase inhibitor hydralazine. If respective hydralazine-inhibitable metabolites are also formed in human liver cytosol incubations in the absence of any cofactors, involvement of aldehyde oxidase in the metabolism of the respective compound is considered likely.
The involvement of aldehyde oxidase in metabolic transformation of the test compound is investigated using primary human hepatocytes in suspension in presence or absence of the specific aldehyde oxidase inhibitor hydralazine. After recovery from cryopreservation, human hepatocytes are incubated in Dulbecco's modified eagle medium supplemented with 3.5 μg glucagon/500 ml, 2.5 mg insulin/500 ml and 3.75 mg/500 ml hydrocortisone) containing 5% human serum.
Following a 30 min preincubation in a cell culture incubator (37° C., 10% CO2) with or without 50 μM hydralazine, test compound solution is spiked into the hepatocyte suspension to obtain a final cell density of 1.0*10^6 to 4.0*10^6 cells/mi (depending on the metabolic turnover rate of the compound observed with primary human hepatocytes), a final test compound concentration of 1 μM, and a final DMSO concentration of 0.05%.
The cells are incubated for six hours (incubator, horizontal shaker) and samples are removed from the incubation after 0, 0.5, 1, 2, 4 or 6 hours, depending on the metabolic turnover rate. Samples are quenched with acetonitrile and pelleted by centrifugation. The supernatant is transferred to a 96-deepwell plate, evaporated under nitrogen and resuspended prior to bioanalysis by liquid chromatography-high resolution mass spectrometry for identification of putative metabolites.

aldehyde oxidase [2] = biological target: T1, aldehyde oxidase; experiment: Metabolite formation in pooled human liver cytosol incubations without cofactors; type: in vitro ADME; design: key: yes: Metabolite is formed in presence of human liver cytosol in the absence of cofactors as indication of aldehyde oxidase mediated metabolism; Metabolite is not detected in cytosol incubations; conditions: human liver cytosol 5 mg/ml, 10 μM test compound, 60 min, metabolite of the same line
Procedure: as §1
The involvement of aldehyde oxidase in the metabolic transformation of the test compound is confirmed at 37° C. with pooled human liver cytosol fractions. The incubations, conducted at a final incubation volume of 60 μl per time point, are composed of phosphate buffer (100 mM, pH 7.4), magnesium chloride (5 mM), and human liver cytosol (5 mg/ml). Following a short preincubation period at 37° C., the reactions are initiated by addition of the test compound, resulting in a final concentration of 10 μM. After 0 and 60 minutes, the incubations are terminated by transferring an aliquot into organic solvent, followed by centrifugation (10000 g, 5 min). The resulting supernatant is used for bioanalysis by liquid chromatography-high resolution mass spectrometry for identification of putative metabolites.

human GPR52 = biological target: T2, human GPR52 (Homo sapiens, UniProt Q9Y2T5); experiment: HTRF assay for direct cAMP measurement; type: cell-based; conditions: CHO-K1 cells stably expressing recombinant human GPR52, mean EC50
T2 construct: expressed in transfected cells; host or cells: CHO-K1
Procedure: Homogeneous Time-Resolved Fluorescence (HTRF) Assay for Direct cAMP Measurement.
HTRF cAMP assays were performed using commercially available assay kits according to the manufacturer's instructions (cAMP Dynamic 2 Assay Kit; #62AM4PEJ, Cisbio Bioassays, Bedford, Mass.). An aliquot of CHO-K1 cells stably expressing recombinant human GPR52 is thawed and resuspended in cell buffer (1×PBS (w/o Ca^2+/Mg^2+)) at a density of 4×10^5 cells per mL Test compounds were solubilized in DMSO to 10 mM stock solutions and serially diluted in DMSO using 6-fold dilutions to generate 8-point dose response curves. These serially diluted samples were then diluted 1:50 in compound dilution buffer (1×PBS (w/o Ca^2+/Mg^2+) containing 0.5 mM IBMX, 0.1% BSA) to achieve a 4× stock. The diluted compounds were transferred (5 μL per well) in duplicate to the 384-well assay plate (Optiplate #6007290, PerkinElmer, Waltham, Mass.). Both a positive (reference compound) and negative (non-stimulated vehicle) control are included in each assay run in column 23. The cell suspension was subsequently dispensed into the 384-well assay plates at 15 μL per well (6000 cells) such that the compound was diluted to 1×. […] After a one-hour incubation at room temperature, 10 μL of cAMP D2 reagent followed by 10 μL of cryptate reagent (provided in the Cisbio kit) was added to each well. Plates were then incubated at room temperature for one hour prior to reading. Time-resolved fluorescence measurements were collected on an EnVision® HTRF plate reader (PerkinElmer, Waltham, Mass.). Counts from the plate reader were fit to the cAMP standard curve included on each plate to determine the amount of cAMP in each test well. The % control was calculated based on the positive control set at […]. Dose-response curves were generated from the cAMP data and analyzed using a nonlinear least squares curve-fitting program to obtain EC50 values.

T2 sequence (Q9Y2T5 whole entry): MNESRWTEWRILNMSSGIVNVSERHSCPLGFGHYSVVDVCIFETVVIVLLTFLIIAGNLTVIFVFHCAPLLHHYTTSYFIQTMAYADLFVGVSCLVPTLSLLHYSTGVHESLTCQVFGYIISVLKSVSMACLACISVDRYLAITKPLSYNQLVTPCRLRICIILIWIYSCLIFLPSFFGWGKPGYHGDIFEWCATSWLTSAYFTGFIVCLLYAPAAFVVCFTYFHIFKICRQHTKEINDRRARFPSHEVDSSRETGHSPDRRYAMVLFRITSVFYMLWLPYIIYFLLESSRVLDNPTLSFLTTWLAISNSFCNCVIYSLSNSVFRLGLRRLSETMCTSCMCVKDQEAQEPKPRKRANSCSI

Question: For `Cc1cc(NC(=O)c2nccnc2N2CC(Oc3cc(F)cc(C(F)F)c3)C2)cnn1` [Example 11], which “% Parent of drug-related material” value (aldehyde oxidase [1]) is on record?
Answer: 86%

Question: And the “Contribution of AO to oxidative metabolism” value (from here on “Contribution of AO”) (aldehyde oxidase [1])?
Answer: 28%

Question: What about the “Formation in human liver cytosol incubations [yes/no]” value (“Formation … [yes/no]” for short) (aldehyde oxidase [2]) of the same compound?
Answer: yes

Question: What about the pEC50 (human GPR52) of the same compound?
Answer: 8.22

Question: For `Cc1cc(NC(=O)c2nccnc2N2CC(Oc3ccc(F)c(F)c3)C2)cnn1` [Example 12], which “% Parent of drug-related material” value (aldehyde oxidase [1]) is on record?
Answer: 93%

Question: What about the “Contribution of AO” value (aldehyde oxidase [1]) of the same compound?
Answer: 56%

Question: What about the “Formation … [yes/no]” value (aldehyde oxidase [2]) of the same compound?
Answer: yes

Question: What about the pEC50 (human GPR52) of the same compound?
Answer: 8.52

Question: Which results are given for `Cc1cc(NC(=O)c2nccnc2N2CC(Oc3cc(F)cc(F)c3)C2)cnn1` [Example 13]?
Answer: % Parent of drug-related material (aldehyde oxidase [1]): 15%; Contribution of AO to oxidative metabolism (aldehyde oxidase [1]): 15%; Formation in human liver cytosol incubations [yes/no] (aldehyde oxidase [2]): yes; pEC50 (human GPR52): 8.05

Question: How did the “% Parent of drug-related material” value (aldehyde oxidase [1]) turn out when `Cc1cc(NC(=O)c2nccnc2N2CC(Oc3cc(F)c(F)c(Cl)c3)C2)cnn1` [Example 14] was run?
Answer: 94%

Question: And the “Contribution of AO” value (aldehyde oxidase [1])?
Answer: 22%

Question: What about the “Formation … [yes/no]” value (aldehyde oxidase [2]) of the same compound?
Answer: yes

Question: And the pEC50 (human GPR52)?
Answer: 8.40

Question: What does the source list for `Cc1cc(NC(=O)c2nccnc2N2CC(Oc3cc(F)c(F)c(F)c3)C2)cnn1` [Example 15]?
Answer: % Parent of drug-related material (aldehyde oxidase [1]): 71%; Contribution of AO to oxidative metabolism (aldehyde oxidase [1]): 71%; Formation in human liver cytosol incubations [yes/no] (aldehyde oxidase [2]): yes; pEC50 (human GPR52): 8.30

Question: With `CCc1cc(NC(=O)c2nccnc2N2CC(Oc3ccc(F)c(F)c3)C2)cnn1` [Example 21] as the compound, how does the “% Parent of drug-related material” value (aldehyde oxidase [1]) read?
Answer: 80%

Question: What about the “Contribution of AO” value (aldehyde oxidase [1]) of the same compound?
Answer: 67%

Question: What about the “Formation … [yes/no]” value (aldehyde oxidase [2]) of the same compound?
Answer: yes

Question: And the pEC50 (human GPR52)?
Answer: 8.70

Question: `Cc1cc(NC(=O)c2nccnc2N2CC(Oc3ccc(F)c(F)c3)C2)ncn1` [Example 29] was tested. Which “% Parent of drug-related material” value (aldehyde oxidase [1]) did it give?
Answer: 96%

Question: And the “Contribution of AO” value (aldehyde oxidase [1])?
Answer: 36%

Question: And the “Formation … [yes/no]” value (aldehyde oxidase [2])?
Answer: yes

Question: What about the pEC50 (human GPR52) of the same compound?
Answer: 8.30
